Where “and” joins values, the source holds several entries; their conditions need not be identical. Equal entries are not always repeated. After the bases stand the sugars from the 5' end (letter, count) and the backbone: PS all phosphorothioate, else s phosphorothioate and o phosphodiester by linkage. Methylation of C is not given here. e = 2'-O-(2-methoxyethyl) (MOE); k = constrained ethyl (cEt); d = 2'-deoxy (DNA)
What follows are sequences tested against IRF4. Conditions: ASO, MM.1R, 0.0625 µM.

First: GGTTGGCTGGTCTTTG (sugars k2 d9 e3 k2, PS)
Second: GAGTTACCGCATTGCT (sugars k3 d10 k3, PS)
The target mRNA inhibition of the first is higher: 44% for the first, -9% for the second.

Same assay, conditions: ASO, MM.1R, 0.074 µM

Sequence “GCAGTGATGTCAGGTT (sugars k2 d9 e3 k2, PS)” has a target mRNA inhibition of 20%.

Same assay, conditions: ASO, MM.1R, 0.222 µM

“GCAGTGATGTCAGGTT (sugars k2 d9 e3 k2, PS)” gave a target mRNA inhibition of 48%.

Same assay, conditions: ASO, MM.1R, 0.25 µM

Compared with “GGTTGGCTGGTCTTTG (sugars k2 d9 e3 k2, PS)”, GAGTTACCGCATTGCT (sugars k3 d10 k3, PS) is lower in target mRNA inhibition: 52% for the first, 16% for the second.

Same assay, conditions: ASO, MM.1R, 0.666 µM

Work on “GCAGTGATGTCAGGTT (sugars k2 d9 e3 k2, PS)” yielded a target mRNA inhibition of 73%.

Same assay, conditions: ASO, MM.1R, 1 µM

“GGTTGGCTGGTCTTTG (sugars k2 d9 e3 k2, PS)” was tested, and the target mRNA inhibition was 69% and 65%.
In the case of “GTGTGCTTGCCAAGCC (sugars kkddddddddddkeke, PS)”, the target mRNA inhibition is reported as 37% and 47%.
GAGTTACCGCATTGCT (sugars k3 d10 k3, PS) was tested, and the target mRNA inhibition was 47% and 52%.
In the case of “GGCACATCAATGTTTT (sugars kkdddddddddkdkdk, PS)”, the target mRNA inhibition is reported as 26% and 16%.
With GTTGGCACAATTCTCT (sugars k3 d10 k3, PS) the target mRNA inhibition was 22% and 16%.
With “TGTGTATTACTCTTAG (sugars kdddddddddkekeke, PS)” the target mRNA inhibition was 32% and 52%.
In the case of GAATGGCGAGTTGGCA (sugars k3 d10 k3, PS), the target mRNA inhibition is reported as 39% and 40%.
“AGTGTCTAAAGTCCCA (sugars kkdddddddddkdkdk, PS)” was tested, and the target mRNA inhibition was 14% and -5%.
With “ATGTGTATTACTCTTA (sugars kkdddddddddkdkdk, PS)” the target mRNA inhibition was 44% and 32%.

First: GACTGGAGTGAACCCT (sugars k3 d10 k3, PS)
Second: TTATATACTGGTTGGT (sugars kkddddddddddkeke, PS)
The target mRNA inhibition of the first is lower: 38% for the first, 47% for the second.

First: TAAGGCACTACTTCCA (sugars k3 d10 k3, PS)
Second: AGTGAGATGCGGAGGT (sugars k3 d10 k3, PS)
The target mRNA inhibition of the first is lower: 10% for the first, 65% for the second.

Going from ATTCCAAACCTTAAGC (sugars k3 d10 k3, PS) to AAAAAGGTGCAAGCCT (sugars k3 d10 k3, PS), the target mRNA inhibition rises from -1% to 6%.

Compared with “GTGTGCTTGCCAAGCC (sugars kkdddddddddkdkdk, PS)”, “AGCTTGATAAAGGCTG (sugars kddddddddddkekek, PS)” is lower in target mRNA inhibition: 59% for the first, 1% for the second.

Compared with AGGGAGCTCATTTTGA (sugars k3 d10 k3, PS), AGATCTGTGGTAATCT (sugars k3 d10 k3, PS) is higher in target mRNA inhibition: -8% for the first, -3% for the second.

First: CCTCAGTTTGTGAAGC (sugars kkdddddddddkekek, PS)
Second: ACGGAAGTTTACACTG (sugars k3 d9 k3 e1, PS)
The target mRNA inhibition of the first is lower: 15% for the first, 29% for the second.

First: GTGCTCTTACAGCCTC (sugars k3 d10 k3, PS)
Second: AAGCATTTTATCATCC (sugars kkkdddddddddkeke, PS)
The target mRNA inhibition of the first is lower: -15% for the first, 21% for the second.

Compared with “GATTATATACTGGTTG (sugars kddddddddddkekek, PS)”, CGCAGGAGCGCGGAGG (sugars k3 d10 k3, PS) is lower in target mRNA inhibition: 48% for the first, -28% for the second.

Going from AGCCGAGGCCTCCTTT (sugars k3 d10 k3, PS) to “GTGATGTCAGGTTTTC (sugars kddddddddddkekek, PS)”, the target mRNA inhibition rises from -28% to 22%.

First: GACACTTTTAGAGAGG (sugars kkkddddddddkekek, PS)
Second: AGGTTCCTGTCACCTG (sugars k3 d10 k3, PS)
The target mRNA inhibition of the first is lower: -8% for the first, -7% for the second.

Going from AGCTATGCTCTAGGAA (sugars k3 d10 k3, PS) to “CTTGATAAAGGCTGAA (sugars kkkddddddddkekek, PS)”, the target mRNA inhibition rises from 11% to 12%.

First: TGTAGTATGAGAAACG (sugars kdddddddddkekeke, PS)
Second: TCTTCTGGATTGCTGA (sugars k3 d10 k3, PS)
The target mRNA inhibition of the first is lower: 14% for the first, 20% for the second.

Going from “GCAGTGATGTCAGGTT (sugars k2 d9 e3 k2, PS)” to “AGCATTTTATCATCCG (sugars kkkdddddddddkeke, PS)”, the target mRNA inhibition falls from 81% to 42%.

Compared with CGCGCAAGTCTACAGC (sugars k3 d10 k3, PS), GACTTAGTCAGAATCT (sugars k3 d10 k3, PS) is lower in target mRNA inhibition: 13% for the first, 10% for the second.

Going from CGCCCGACCCTCCCCA (sugars k3 d10 k3, PS) to CCTGTGCAAAACCAGT (sugars k3 d10 k3, PS), the target mRNA inhibition rises from -24% to -10%.

Going from TCCACGCGCGGAGGAC (sugars k3 d10 k3, PS) to TTGGTACGGGATTTCC (sugars k3 d10 k3, PS), the target mRNA inhibition rises from -43% to 34%.

In the case of AAACATCCAAAGGGTT (sugars k3 d10 k3, PS), the target mRNA inhibition is reported as -1%.

Same assay, conditions: ASO, MM.1R, 2 µM

In the case of “GCAGTGATGTCAGGTT (sugars k2 d9 e3 k2, PS)”, the target mRNA inhibition is reported as 91%.

Same assay, conditions: ASO, MM.1R, 4 µM

Compared with “GGTTGGCTGGTCTTTG (sugars k2 d9 e3 k2, PS)”, GAGTTACCGCATTGCT (sugars k3 d10 k3, PS) is lower in target mRNA inhibition: 84% for the first, 81% for the second.

Same assay, conditions: ASO, SK-MEL-28, 4 µM

Going from GCACTGGCATTGAGAC (sugars k3 d10 k3, PS) to GGAGAATTAAGAAGAC (sugars k3 d10 k3, PS), the target mRNA inhibition falls from 73% to 32%.

Compared with TGCTTCAACACACTGT (sugars k3 d10 k3, PS), ACCCAGAAGTACGAGC (sugars k3 d10 k3, PS) is higher in target mRNA inhibition: 3% for the first, 21% for the second.

Compared with TAGAGGAATGGCGGAT (sugars k3 d10 k3, PS), GAACAATCCTGTACAC (sugars k3 d10 k3, PS) is lower in target mRNA inhibition: 45% for the first, -5% for the second.

Compared with GAGCTGTGATGAGCTT (sugars k3 d10 k3, PS), ATTGAAATGGAGCATC (sugars k3 d10 k3, PS) is lower in target mRNA inhibition: 10% for the first, -1% for the second.

Going from CAAAAGTACCACAGGG (sugars k3 d10 k3, PS) to AGCAAAGAGGGTCACA (sugars k3 d10 k3, PS), the target mRNA inhibition rises from 40% to 68%.

First: AGCAATTGAAATGGAG (sugars k3 d10 k3, PS)
Second: TTGAAGCAACACGGGA (sugars k3 d10 k3, PS)
The target mRNA inhibition of the first is lower: 22% for the first, 61% for the second.

Compared with GTCAAACTATAATTGG (sugars k3 d10 k3, PS), GCCAAGTTGAAGACAC (sugars k3 d10 k3, PS) is lower in target mRNA inhibition: 61% for the first, 57% for the second.

First: GTGAAACTGAGAGTGC (sugars k3 d10 k3, PS)
Second: ACTGGGTACATGGCAG (sugars k3 d10 k3, PS)
The target mRNA inhibition of the first is lower: -20% for the first, 59% for the second.

Compared with GGGCAGGTTTCATTTC (sugars k3 d10 k3, PS), GCATCTCTAAAGAATG (sugars k3 d10 k3, PS) is higher in target mRNA inhibition: 32% for the first, 61% for the second.

Compared with GAACAATCCTGTACAC (sugars k4 d8 k4, PS), TGTCACCTGGCAACCA (sugars k3 d10 k3, PS) is higher in target mRNA inhibition: 0% for the first, 9% for the second.

Going from ATAATTGGCACGAGGA (sugars k3 d10 k3, PS) to AGAAACGAGTTGACAC (sugars k3 d10 k3, PS), the target mRNA inhibition falls from 67% to 15%.

Compared with CGAAAAGTCAAAATAC (sugars k3 d10 k3, PS), GCCTTGGACGGCCCCG (sugars k3 d10 k3, PS) is higher in target mRNA inhibition: 0% for the first, 23% for the second.

First: ACACACCACTATTCGA (sugars k3 d10 k3, PS)
Second: AAGCAAGAGCTTACTG (sugars k3 d10 k3, PS)
The target mRNA inhibition of the first is higher: 35% for the first, 14% for the second.

Going from CAGCTCACCGCGCTCA (sugars k3 d10 k3, PS) to GAATGCATAACACGGT (sugars k3 d10 k3, PS), the target mRNA inhibition rises from 42% to 61%.

First: CACGAAGGGCAGTGCC (sugars k3 d10 k3, PS)
Second: AGCCGAAGCATTTTAT (sugars k3 d10 k3, PS)
The target mRNA inhibition of the first is lower: 17% for the first, 44% for the second.

Compared with CACCATTCAGACAGAT (sugars k3 d10 k3, PS), ACTCAATGTGCACCTT (sugars k3 d10 k3, PS) is higher in target mRNA inhibition: -67% for the first, 29% for the second.

Going from AGTCCTCAAATCTTCA (sugars k3 d10 k3, PS) to ACCTTTACTTCATTCC (sugars k3 d10 k3, PS), the target mRNA inhibition rises from 54% to 64%.

First: ACATAAAGGACCCCGC (sugars k3 d10 k3, PS)
Second: TCTGAGTGAGCTTGCC (sugars k3 d10 k3, PS)
The target mRNA inhibition of the first is lower: 28% for the first, 49% for the second.

Compared with TGGAAACTCCTCTCCA (sugars k3 d10 k3, PS), CCTCAACCGCTGAACT (sugars k3 d10 k3, PS) is higher in target mRNA inhibition: 16% for the first, 30% for the second.

Going from TTGGCCTGCCGGCCTG (sugars k3 d10 k3, PS) to CAGAAGTACGAGCACA (sugars k3 d10 k3, PS), the target mRNA inhibition rises from 4% to 47%.

Going from GGGAACAAAAGGTTCC (sugars k3 d10 k3, PS) to GCCCAATACATATCCA (sugars k3 d10 k3, PS), the target mRNA inhibition rises from -11% to 58%.

First: ACTATGGTAGGAGTGT (sugars k3 d10 k3, PS)
Second: GGAGAAACGAGCCAGT (sugars k3 d10 k3, PS)
The target mRNA inhibition of the first is lower: 25% for the first, 47% for the second.

Going from GCCCAGCTAGCGCGCA (sugars k3 d10 k3, PS) to TCCTCAAAGTCATTGC (sugars k3 d10 k3, PS), the target mRNA inhibition rises from 29% to 32%.

First: CAAGCTTTCATTTGGG (sugars k3 d10 k3, PS)
Second: AAAACAGTAAGAGGGC (sugars k3 d10 k3, PS)
The target mRNA inhibition of the first is higher: 74% for the first, 39% for the second.

Going from TCATACCCAATAGTCT (sugars k3 d10 k3, PS) to TCTAACCCTAATCCTA (sugars k3 d10 k3, PS), the target mRNA inhibition falls from 52% to 5%.

Going from TCACCTGGCAACCTGC (sugars k4 d8 k4, PS) to AGCCCTTACCTCGCCC (sugars k3 d10 k3, PS), the target mRNA inhibition falls from 28% to 25%.

Compared with AGACAGACTTCCAAGA (sugars k3 d10 k3, PS), TACTTAGACATTACTA (sugars k3 d10 k3, PS) is higher in target mRNA inhibition: 36% for the first, 39% for the second.

Going from CTGCATTTGCAAATAA (sugars k4 d8 k4, PS) to GAGAGCCTTCACGCAC (sugars k3 d10 k3, PS), the target mRNA inhibition rises from -8% to 23%.

Going from GATATTAGAGACTGTA (sugars k3 d10 k3, PS) to ACTTAAAATCCACACC (sugars k3 d10 k3, PS), the target mRNA inhibition falls from 51% to 7%.

Compared with ACTGCTTGAGGTTTTC (sugars k3 d10 k3, PS), GTCACAAAGCAATTGA (sugars k3 d10 k3, PS) is higher in target mRNA inhibition: 58% for the first, 67% for the second.

Going from AGGAGATATTAATTAC (sugars k3 d10 k3, PS) to AGGCACATCAATGTTT (sugars k3 d10 k3, PS), the target mRNA inhibition falls from 57% to 51%.

GTCCATGGGAGATCCG (sugars k3 d10 k3, PS) was tested, and the target mRNA inhibition was 52%.

For AGCTTAGTTATCTGGG (sugars k3 d10 k3, PS), the target mRNA inhibition was 54% and 59%.
